US20210177889A1, “GASEOUS PHARMACEUTICAL COMPOSITION FOR HYPERTENSION THERAPY” (KEIO UNIVERSITY, priority 2019, published 2021)

What was measured:
[1] = system: hypertension attributed to 5/6 nephrectomy; assay: Continuous telemetry blood pressure monitoring after 5/6 nephrectomy with daily H2 inhalation; type: in vivo, Lewis rat
Source text: In order to monitor continuous blood pressure fluctuation, telemetry transmitters were implanted into rats. Specifically, rats were anesthetized with isoflurane, and the left groin was disinfected with 1% chlorhexidine. An incision of about 1.5 cm was made in the left groin, the left femoral artery was exposed, and a telemetry transmitter (HD-S10, Physiotel HD Telemetry, Data Science International) catheter was inserted into the left femoral artery. The tip of the transmitter catheter was placed in the abdominal aorta caudally from the branch of the renal artery. The transmitter body was inserted into a subcutaneous pocket made in the left lower back, and the skin was sutured. All surgical intervention was performed under sterile conditions. In order to elicit renal hypertension, 5/6 nephrectomy was carried out with slight modification to previously described methods (Nephrology (Carlton) 19, 552-561; 10.1111/nep.12279 (2014); J. Am. Soc. Nephrol. 4, 2023-2031 (1994); and Kidney Int. 40, 29-34; 10.1038/ki.1991.175 (1991).). Briefly, rats were anesthetized by isoflurane inhalation (induction at 4% and maintenance at 1.5%), and upper midline laparotomy of about 4 cm was carried out. Surgical operation was performed under a microscope, the left renal artery branch was identified, and selectively ligated with 7-0 silk at a position as close as possible to the left kidney so that macroscopic infarction is caused in about ⅔ of the left renal cortex. In the first pilot research (FIGS. 1a and 2), a high-temperature cautery pen (AA11, Bovie, Tenn., U.S.A.) was used to add the resection of the infarcted portion of the kidney. Subsequently, the right renal artery, the renal vein, and the urinary duct was ligated with 4-0 silk, and the right kidney were resected. The abdominal wall and the skin were closed with a 4-0 nylon thread. The anesthetic time was uniformly 30 minutes in all rats. H2 gas (1.3% H2+21% O2+77.7 N2) and control gas (21% O2+79% N2) were filled into gas cylinders in advance at a factory. The H2 group and the control group were allowed to inhale the H2 gas and the control gas that were mixed in advance. All animals were allowed to inhale the assigned gas at 10 L/minute for 1 hour in an established anesthesia box, and inhaled for an additional three minutes to purge the box (i.e. a total of 63 minutes). In the nephrectomy model and SHR, gas inhalation was repeated every day for 4 weeks and 2 weeks, respectively. In order to investigate the time course necessary for H2 gas to exert therapeutic effect, rats implanted with telemetry (8 weeks-old; 3 for each group) were subjected to 5/6 nephrectomy, and the blood pressure fluctuation was continuously monitored (FIG. 1b). In the first gas inhalation immediately after 5/6 nephrectomy, the blood pressure of the H2 gas group was reduced compared to the control group (117.4±1.8 mmHg vs. 125.6±4.7 mmHg, P=0.04). […] Before the start of inhalation on Day 2, there was no difference in blood pressure between the two groups. […] To examine the anti-hypertensive effect of H2 in more detail, chronic and continuous monitoring of blood pressure using a non-invasive method with a wireless implantable telemetry system (FIG. 5a) was conducted. Gas inhalation was started on the day of 5/6 nephrectomy and continued for 4 weeks. Again, there was no difference in the time course of change in renal function between the two groups.

[2] = system: hypertension established after 5/6 nephrectomy; assay: Therapeutic effect of delayed H2 inhalation on hypertension established after 5/6 nephrectomy (tail-cuff); type: in vivo, Lewis rat; conditions: N=17
Procedure: At about 24 hours after the final gas inhalation of 5/6 nephrectomized rats, blood pressure and heart rate were non-invasively measured using the tail-cuff pressure measurement method (BP-98A, Softron). The hemodynamics parameter was measured three times, and the median was adopted as the representative value. In order to elicit renal hypertension, 5/6 nephrectomy was carried out with slight modification to previously described methods (Nephrology (Carlton) 19, 552-561; 10.1111/nep.12279 (2014); J. Am. Soc. Nephrol. 4, 2023-2031 (1994); and Kidney Int. 40, 29-34; 10.1038/ki.1991.175 (1991).). Briefly, rats were anesthetized by isoflurane inhalation (induction at 4% and maintenance at 1.5%), and upper midline laparotomy of about 4 cm was carried out. Surgical operation was performed under a microscope, the left renal artery branch was identified, and selectively ligated with 7-0 silk at a position as close as possible to the left kidney so that macroscopic infarction is caused in about ⅔ of the left renal cortex. In the first pilot research (FIGS. 1a and 2), a high-temperature cautery pen (AA11, Bovie, Tenn., U.S.A.) was used to add the resection of the infarcted portion of the kidney. Subsequently, the right renal artery, the renal vein, and the urinary duct was ligated with 4-0 silk, and the right kidney were resected. […]

[2H][2H] [H2 gas, Molecular hydrogen (H2)]
time course of change in renal function between the two groups ([1]; 5/6 nephrectomy, 4 weeks of gas inhalation): no difference
blood pressure before inhalation compared to the control group ([1]; after Week 1 of daily inhalation, telemetry): began to decrease
difference in blood pressure between H2 and control groups when inhalation was stopped ([1]; after the first gas inhalation, telemetry): immediately disappeared
blood pressure in the first gas inhalation ([1]; first inhalation immediately after 5/6 nephrectomy, telemetry, N=3, P=0.04 vs control (125.6±4.7)): 117.4±1.8 mmHg
decrease in blood pressure with longer period of gas inhalation vs control 5/6 nephrectomy ([1]; inhalation from the day of 5/6 nephrectomy for 4 weeks, telemetry, P<0.05): greater decrease
difference in blood pressure between the two groups before the start of inhalation on Day 2 ([1]; telemetry, before inhalation, Day 2): no difference
duration of hypotensive effect ([2]; delayed inhalation, one hour daily for 4 weeks): continued through the inhalation duration
blood pressure (established hypertension) ([2]; inhalation started 3 weeks after 5/6 nephrectomy, one week after starting H2 inhalation, no statistically significant difference): began to decrease
